The values below come from patent US11498929B2, “Chromenopyrimidine derivatives as phosphatidylinsitol phosphate kinase inhibitors” (Hibercell, Inc., priority 2019, dated 2022).

Molecules are shown by their SMILES. A value given as a limit tells only on which side of the number the result lay.

By IC50 is commonly meant the concentration at which inhibition is half-maximal. High values mean weaker potency in that assay, low ones greater potency in that assay. One may read the EC50 as the concentration at which the effect is half-maximal. Low readings indicate an effect from little substance, high ones a need for much substance.

For experiment [1], the target named is T1, PIP4K2A (Homo sapiens, UniProt P48426).
T1 construct: GST; made in house; host or cells: E. coli
T1 sequence (P48426 1-406): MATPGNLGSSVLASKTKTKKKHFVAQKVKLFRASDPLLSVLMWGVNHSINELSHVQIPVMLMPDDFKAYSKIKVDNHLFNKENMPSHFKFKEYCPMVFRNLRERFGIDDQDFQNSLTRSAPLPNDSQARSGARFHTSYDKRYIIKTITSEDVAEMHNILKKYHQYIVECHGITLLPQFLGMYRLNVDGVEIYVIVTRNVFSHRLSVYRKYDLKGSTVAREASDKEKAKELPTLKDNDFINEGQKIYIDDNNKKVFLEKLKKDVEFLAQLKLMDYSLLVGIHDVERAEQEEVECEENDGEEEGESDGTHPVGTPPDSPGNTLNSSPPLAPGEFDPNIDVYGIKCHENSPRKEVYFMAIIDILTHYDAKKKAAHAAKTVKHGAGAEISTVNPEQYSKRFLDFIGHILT
Nature of the experiment: Kinase Assay - PIP4K2 A (inhibition of PIP4K2 A kinase assay). Particulars: compounds listed under IC50 bin headings. The format is biochemical. The method, then:
Dilution series of the compounds were prepared in DMSO at 100 times the final assay concentration (n1=n0/3 in 10 points). The compounds were further diluted to three times the assay concentration in assay buffer (20 mM MOPS pH 7.2, 25 mM magnesium chloride, 0.005% Tween 20). 6 μL of the diluted compounds were added to a 384 well assay plate followed by 9 μL of a mix consisting of 4 nM PIP4K2A (full length protein, SignalChem) and 100 μM PI(5)P diC8 (Tebu-Bio). Enzyme and compounds were pre-incubated at room temperature for 15 minutes.
Then 3 μL of a solution containing 60 μM ATP (Promega) in assay buffer was added to the wells containing compound and enzyme and mixing was performed by pipetting several times. The reaction was incubated at room temperature for 1 h. Then 18 μL of ADP-Glo™ Reagent (Promega) was added to stop the kinase reaction and deplete the unconsumed ATP, mixing was performed by pipetting several times. The plate was incubated at room temperature for 40 minutes before addition of 36 μL of Kinase Detection Reagent (Promega) to convert ADP to ATP and introduce luciferase and luciferin to detect ATP. The reaction was incubated at room temperature for 40 minutes before the luminescence was measured in a in a Victor 3V 1420 multilabel counter (Perkin Elmer).
Percent inhibition of the compounds as compared to dimethyl sulfoxide treated control samples was calculated. Compound concentration versus percent inhibition were fitted to generate IC50 values. […]

Experiment [2] concerns the target T2, PIP4K2 B (GST-tagged PIP4KtypeIIB) (Homo sapiens, UniProt P78356).
T2 construct: GST; made in house; host or cells: E. coli
T2 sequence (P78356 1-416): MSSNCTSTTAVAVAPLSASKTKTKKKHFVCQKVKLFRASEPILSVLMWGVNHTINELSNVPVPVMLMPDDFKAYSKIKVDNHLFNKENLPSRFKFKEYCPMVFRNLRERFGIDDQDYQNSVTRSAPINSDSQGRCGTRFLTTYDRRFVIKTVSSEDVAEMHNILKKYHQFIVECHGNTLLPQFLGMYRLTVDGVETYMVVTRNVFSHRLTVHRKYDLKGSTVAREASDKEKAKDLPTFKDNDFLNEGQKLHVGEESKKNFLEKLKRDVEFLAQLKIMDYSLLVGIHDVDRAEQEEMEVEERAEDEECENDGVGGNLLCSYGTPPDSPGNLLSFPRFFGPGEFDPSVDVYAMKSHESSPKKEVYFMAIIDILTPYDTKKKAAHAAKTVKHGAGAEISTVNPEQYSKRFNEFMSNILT
Nature of the experiment: Kinase Assay - PIP4K2 B (inhibition of PIP4K2 B kinase assay). The experiment is classed as biochemical. The following applies: compounds listed under IC50 bin headings. From the text: GST tagged PIP4KtypeIIA and B enzymes were overexpressed in E. Coli and purified to >80% homogeneity. Phosphatidyl inositol-5-phosphate (PI5P, Cat. #850152, Avanti Polar Lipids Inc.) was used as the lipid substrate and phosphatidyl ethanolamine (DOPE 18:1, Cat. #850725, Avanti Polar Lipids Inc.) was used as the carrier lipid for assays. Ultrapure ATP and GTP was purchased from Bellbrooke Labs. ADP Glo reagents were obtained from Promega. Transcreener FI reagent was obtained from Bellbrooke labs.
GST-tagged PIP4KtypeIIB (3.4 uL, 2.77 mg/mL) was diluted to 5 mL using HNE buffer to yield 5× enzyme stock (25 nM)
Lipid Preparation: In a 10 mL pyrex glass vial, 1 ug of PI5P and 1 ug of DOPE were suspended in 2.5 mL of HEPES buffer mix and 2.5 mL of H:E buffer. The contents were mixed and sonicated for 3 min to yield a translucent lipid stock.
Compound Preparation: Compounds were stored as 5 mM stocks in neat DMSO as room temperature in glass vials. 5 mM stocks were diluted to 2 mM and then serially diluted (3×) in neat DMSO in 96 well polypropylene plates. From the serially diluted stocks, 3 uL was delivered into 250 uL of 25% DMSO (in water) to generate 5× compound stocks. Typically, the highest compound conc. was 24 uM.
The assay volume was kept at 25 uL. To each well of the reaction plate, 10 uL of lipid stock (1:1 ratio PI5P:DOPE) was delivered. This was followed by the addition of 5 uL of compound in 25% DMSO. Then, to each well, 5 uL of 25 nM (5×) typeIIB enzyme was delivered. The contents were mixed well and incubated for 1 h at 27 C. After 1 h, reaction was initiated by adding 5 uL of 500 uM GTP and the contents were mixed well with a multi-channel pipetteman. The final concentration of the reagents are as follows: 50 mM HEPES, pH 7.3, 10 mM MgCl2, 20 mM NaCl, 0.01% v/v triton-X100, 5% DMSO, 100 uM GTP, 80 uM (2 ug) PI5P, 2 ug DOPE, and 5 nM PIP4KIIB Typically, the highest conc. of compounds was 4.8 uM and the lowest conc. was 0.
After 2 h, the reaction was quenched by adding 25 uL of transcreener FI reagent. The contents were incubated at RT for 1 h and the Fluorescence (Ex:584 Em: 623) was read using Molecular Devices Paradigm plate reader. […] The blanks were averaged and subtracted from all other wells. Using a calibration curve, RFU was converted to uM GDP (product). IC50 was calculated by plotting the residual activity (expressed as % No inhibitor control) vs. log [Inh. conc.]

In experiment [3] the test system is MOLM-16. Description: MOLM-16 EC50 assay. The format is cell-based. The following applies: MOLM16.

Regarding `CCN(CC)CCNC(=O)N1CCOc2ncc(Nc3ncc4c(n3)C(C)(C)Oc3cc(N5CCCC5=O)ccc3-4)cc21` [Compound 1, N-[2-(diethylamino)ethyl]-7-{[5,5-dimethyl-8-(2-oxopyrrolidin-1-yl)-5H-chromeno[3,4-d]pyrimidin-3-yl]amino}-1H,2H,3H-pyrido[2,3-b][1,4]oxazine-1-carboxamide], the IC50 in experiment [1] lay in the range of 1 to 10 nM; in experiment [2], 10 to 100 nM. Besides, the concentration giving a half-maximal response (EC50) in experiment [3] was 10 to 100 nM.
`CC1(C)Oc2cc(N3CCCC3=O)ccc2-c2cnc(Nc3cnc4c(c3)N(C(=O)NCCN3CCOCC3)CCO4)nc21` [Compound 2, 7-{[5,5-dimethyl-8-(2-oxopyrrolidin-1-yl)-5H-chromeno[3,4-d]pyrimidin-3-yl]amino}-N-[2-(morpholin-4-yl)ethyl]-1H,2H,3H-pyrido[2,3-b][1,4]oxazine-1-carboxamide]: the IC50 in experiment [1] and in experiment [2] was 1 to 10 nM in each case. The compound further registered an EC50 in experiment [3] of 10 to 100 nM.
For the compound `C[C@@H]1CCC(=O)N1c1ccc2c(c1)OC(C)(C)c1nc(Nc3cnc4c(c3)N(C(=O)CN(C)C)CCO4)ncc1-2` [Compound 3, (5R)-1-[3-({1-[2-(dimethylamino)acetyl]-1H,2H,3H-pyrido[2,3-b][1,4]oxazin-7-yl}amino)-5,5-dimethyl-5H-chromeno[3,4-d]pyrimidin-8-yl]-5-methylpyrrolidin-2-one], the half-maximal inhibitory concentration (IC50) in experiment [1] and in experiment [2] was 1 to 10 nM in each case. Also, the EC50 in experiment [3] lay within 10 to 100 nM.
`CCN1CCN(Cc2cncc(Nc3ncc4c(n3)C(C)(C)Oc3cc(N5CCCC5=O)ccc3-4)c2)CC1` [Compound 4, 1-[3-({5-[(4-ethylpiperazin-1-yl)methyl]pyridin-3-yl}amino)-5,5-dimethyl-5H-chromeno[3,4-d]pyrimidin-8-yl]pyrrolidin-2-one]: the results for the half-maximal inhibitory concentration (IC50) in experiment [1] and in experiment [2] were 10 to 100 nM and 100 to 1000 nM, respectively. In addition, the EC50 in experiment [3] was 10 to 100 nM.
Turning to `Cc1cnnn1-c1ccc2c(c1)OC(C)(C)c1nc(Nc3cnc4c(c3)N(C(=O)N(C)C)CCO4)ncc1-2` [Compound 5, 7-{[5,5-dimethyl-8-(5-methyl-1H-1,2,3-triazol-1-yl)-5H-chromeno[3,4-d]pyrimidin-3-yl]amino}-N,N-dimethyl-1H,2H,3H-pyrido[2,3-b][1,4]oxazine-1-carboxamide], the IC50 in experiment [1] is at most 1 nM; in experiment [2], 1 to 10 nM. Further, the EC50 in experiment [3] was 100 to 1000 nM.
On to `Cc1cnnn1-c1ccc2c(c1)OC(C)(C)c1nc(Nc3cncc(N4CCN(CCO)CC4)c3)ncc1-2` [Compound 6, 2-[4-(5-{[5,5-dimethyl-8-(5-methyl-1H-1,2,3-triazol-1-yl)-5H-chromeno[3,4-d]pyrimidin-3-yl]amino}pyridin-3-yl)piperazin-1-yl]ethan-1-ol], for which the IC50 in experiment [1] is at most 1 nM; in experiment [2], 1 to 10 nM. In addition, the EC50 in experiment [3] fell in the range of 100 to 1000 nM.
Take `CNC(=O)N1CCOc2ncc(Nc3ncc4c(n3)C(C)(C)Oc3cc(N5C(=O)CC[C@H]5C)ccc3-4)cc21` [Compound 18, 7-({5,5-dimethyl-8-[(2R)-2-methyl-5-oxopyrrolidin-1-yl]-5H-chromeno[3,4-d]pyrimidin-3-yl}amino)-N-methyl-1H,2H,3H-pyrido[2,3-b][1,4]oxazine-1-carboxamide]: the half-inhibitory concentration (IC50) is at most 1 nM in experiment [1] and 1 to 10 nM in experiment [2].
For `C[C@@H]1CCC(=O)N1c1ccc2c(c1)OC(C)(C)c1nc(Nc3cnc4c(c3)N(C(=O)NC3CC3)CCO4)ncc1-2` [Compound 20, N-cyclopropyl-7-({5,5-dimethyl-8-[(2R)-2-methyl-5-oxopyrrolidin-1-yl]-5H-chromeno[3,4-d]pyrimidin-3-yl}amino)-1H,2H,3H-pyrido[2,3-b][1,4]oxazine-1-carboxamide], the IC50 in experiment [1] and in experiment [2] was 1 to 10 nM in each case.
For the compound `CCN(CC)CCOC(=O)N1CCOc2ncc(Nc3ncc4c(n3)C(C)(C)Oc3cc(N5CCCC5=O)ccc3-4)cc21` [Compound 21, 2-(diethylamino)ethyl 7-{[5,5-dimethyl-8-(2-oxopyrrolidin-1-yl)-5H-chromeno[3,4-d]pyrimidin-3-yl]amino}-1H,2H,3H-pyrido[2,3-b][1,4]oxazine-1-carboxylate], the IC50 in experiment [1] was 1 to 10 nM; in experiment [2], 10 to 100 nM.
In experiment [1], `CC1(C)Oc2cc(N3C(=O)CCC34CC4)ccc2-c2cnc(Nc3cccnc3)nc21` [Compound 24, 4-{5,5-dimethyl-3-[(pyridin-3-yl)amino]-5H-chromeno[3,4-d]pyrimidin-8-yl}-4-azaspiro[2.4]heptan-5-one] returned a half-inhibitory concentration (IC50) of 1 to 10 nM. In experiment [3], the half-maximal effective concentration (EC50) fell in the range of 100 to 1000 nM.
For the compound `CCN(CC)CCN(C)c1cncc(Nc2ncc3c(n2)C(C)(C)Oc2cc(-n4nncc4C)ccc2-3)c1` [Compound 27, N3-[2-(diethylamino)ethyl]-N5-[5,5-dimethyl-8-(5-methyl-1H-1,2,3-triazol-1-yl)-5H-chromeno[3,4-d]pyrimidin-3-yl]-N3-methylpyridine-3,5-diamine], the IC50 in experiment [1] was in the range of 1 to 10 nM. The EC50 in experiment [3] lay within 100 to 1000 nM.
As to `CC1(C)Oc2cc(N3CCCC3=O)ccc2-c2cnc(Nc3cncc(CN4CC(F)C4)c3)nc21` [Compound 28, 1-[3-({5-[(3-fluoroazetidin-1-yl)methyl]pyridin-3-yl}amino)-5,5-dimethyl-5H-chromeno[3,4-d]pyrimidin-8-yl]pyrrolidin-2-one], the concentration for half-maximal inhibition (IC50) lay within 1 to 10 nM in experiment [1] and 100 to 1000 nM in experiment [2].
Regarding `CC1(C)Oc2cc(N3CCCC3=O)ccc2-c2cnc(Nc3cncc(OCCN4CC(F)C4)c3)nc21` [Compound 30, 1-[3-({5-[2-(3-fluoroazetidin-1-yl)ethoxy]pyridin-3-yl}amino)-5,5-dimethyl-5H-chromeno[3,4-d]pyrimidin-8-yl]pyrrolidin-2-one], the IC50 in experiment [1] lay in the range of 10 to 100 nM; in experiment [2], 100 to 1000 nM.
On to `CNCCOc1cncc(Nc2ncc3c(n2)C(C)(C)Oc2cc(N4CCCC4=O)ccc2-3)c1` [Compound 34, 1-[5,5-dimethyl-3-({5-[2-(methylamino)ethoxy]pyridin-3-yl}amino)-5H-chromeno[3,4-d]pyrimidin-8-yl]pyrrolidin-2-one], for which, in experiment [1], the IC50 fell in the range of 10 to 100 nM. This compound also registered a half-maximal effective concentration (EC50) in experiment [3] of 10 to 100 nM.
